Results published in US20060063782A1, “3-Hetero arylmethoxy ! pyridines and their analogues as p38 map kinase inhibitors” (priority 2002, published 2006).

molecular target: p38 MAP kinase (Homo sapiens, UniProt Q16539); assay: p38 MAP Kinase Assay (33P incorporation into myelin basic protein, filter plate); type: biochemical; details: Table 1; MKK6-activated p38, MBP substrate, 50 minutes
Description: The activated p38 is then diluted 1:6 with assay buffer, and 20 μl mixed with 25 μl of MBP mix (300 μl 10×strength assay buffer, 300 μl of 10 mM DTT & 10 mM sodium orthovanadate, 1.7 ml H2O, 50 μCi γ^33P-ATP, 200 μl of myelin basic protein (MBP) (5 mg/ml)) and added to 96 well plates along with 5 μl of various dilutions of the test compound in DMSO (up to 10%). The reaction is allowed to proceed for 50 minutes before being stopped with an excess of ortho-phosphoric acid (30 μl at 2%).
γ^33P-ATP which remains unincorporated into the myelin basic protein is separated from phosphorylated MBP on a Millipore MAPH filter plate. The wells of the MAPH plate are wetted with 0.5% orthophosphoric acid, and then the results of the reaction are filtered with a Millipore vacuum filtration unit through the wells. Following filtration, the residue is washed twice with 200 μl of 0.5% orthophosphoric acid. Once the filters have dried, 25 μl of Microscint 20 scintillant is added, and then counted on a Packard Topcount for 30 seconds.

Sequence of p38 MAP kinase (Q16539 whole entry): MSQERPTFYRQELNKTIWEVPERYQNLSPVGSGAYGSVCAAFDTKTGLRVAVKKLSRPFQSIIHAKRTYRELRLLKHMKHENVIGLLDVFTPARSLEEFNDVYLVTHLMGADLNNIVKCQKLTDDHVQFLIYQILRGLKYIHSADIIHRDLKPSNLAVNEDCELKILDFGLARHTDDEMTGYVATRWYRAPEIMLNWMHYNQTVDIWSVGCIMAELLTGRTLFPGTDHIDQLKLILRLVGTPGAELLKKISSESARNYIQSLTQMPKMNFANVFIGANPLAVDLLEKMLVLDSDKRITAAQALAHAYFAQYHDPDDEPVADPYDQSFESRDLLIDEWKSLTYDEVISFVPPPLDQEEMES

SMILES | IC50 [µM]
Nc1ncccc1OCc1ccccc1-c1ccccc1 [Compound 2] | < 10
COc1ccccc1COc1cccnc1N [Compound 6, 2-amino-3-(2-methoxybenzyloxy)pyridine] | < 1000
Nc1ncccc1OCc1cccc(Cl)c1 [Compound 9, 2-amino-3-(3-chlorobenzyloxy)pyridine] | < 1000
Clc1ncccc1OCc1ccccc1 [Compound 10, 3-Benzyloxy-2-chloropyridine] | < 2000
Nc1ncccc1OCc1ccc(F)cc1F [Compound 13, 2-amino-3-(2,4-difluorobenzyloxy)pyridine] | < 1000
Nc1ncccc1OCc1ccc(F)c(F)c1 [Compound 14, 2-amino-3-(3,4-difluorobenzyloxy)pyridine] | < 1000
Nc1ncccc1OCc1ccc(Cl)cc1Cl [Compound 15, 2-amino-3-(2,4-dichlorobenzyloxy)pyridine] | < 1000
Nc1ncccc1OCc1ccc(Cl)c(F)c1 [Compound 16, 2-amino-3-(4-chloro-3-fluorobenzyloxy)pyridine] | < 200
Cc1cc(C)cc(COc2cccnc2N)c1 [Compound 19] | < 200
Nc1ncccc1OCc1cccc(-c2ccccc2)c1 [Compound 20] | < 200
Nc1ncccc1OCc1c(F)cccc1Cl [Compound 22] | < 1000
Nc1ncccc1OCc1ccccc1C(F)(F)F [Compound 23] | < 100
Nc1ncccc1OCc1cccc(OC(F)(F)F)c1 [Compound 24] | < 10000
Nc1ncccc1OCc1ccccc1CS(=O)(=O)c1ccccc1 [Compound 25] | < 1000
Nc1ncccc1OCc1cccc(Cl)c1F [Compound 27] | < 1000
Cc1cccc(COc2cccnc2N)c1F [Compound 28] | < 1000
Cc1ccc2ccccc2c1COc1cccnc1N [Compound 30] | < 100
Nc1ncccc1OCc1c(F)cc(F)cc1F [Compound 32] | < 1000
Nc1ncccc1OCn1nnc2ccccc21 [Compound 37] | < 1000
Nc1ncccc1OCc1csc2ccccc12 [Compound 40] | < 1000
OCCNc1ccc(OCc2ccccc2)cn1 [Compound 45] | < 200
Nc1ncccc1OCc1cccc2ccoc12 [Compound 47] | < 1000

Next, values leading:

IC50 [µM] | SMILES
< 1000 | c1cncc(OCc2cccc3ccccc23)c1 [Compound 11, 3-(1-Naphthylmethyloxy)pyridine]
< 1000 | Nc1ncccc1OCc1cc2c(cc1Cl)OCO2 [Compound 18, 2-amino-3-(2-chloro-4,5-(methylenedioxy)benzyloxy)pyridine]
< 1000 | Nc1ncccc1OCc1ccc(F)cc1Cl [Compound 31]
< 1000 | Nc1ncccc1OCc1cccc(C(=O)NCc2cccc3ccccc23)c1 [Compound 33]
< 1000 | Nc1ncccc1OCc1cccc(C(=O)NCC2CC2)c1 [Compound 34]
< 1000 | Nc1ccc(Cl)c(COc2cccnc2)c1 [Compound 41]
< 1000 | CC(=O)Nc1ccc(Cl)c(COc2cccnc2)c1 [Compound 43]
< 2 | O=C(Nc1ccc(Cl)c(COc2cccnc2)c1)c1ccnc(N2CCOCC2)c1 [Compound 44, N-[4-Chloro-3-(pyridin-3-yloxymethyl)-phenyl]-2-morpholin-4-yl-isonicotinamide]
< 1000 | Nc1ccncc1OCc1cccc2ccccc12 [Compound 46]
< 200 | O=C(Nc1ccc(Cl)c(COc2cccnc2)c1)c1cccc(F)c1 [Compound 50, N-[4-Chloro-3-(pyridin-3-yloxymethyl)-phenyl]-3-fluoro-benzamide]
< 200 | Clc1cccc(Cl)c1COc1ccc(NCc2ccccc2)nc1 [Compound 51]
< 20 | O=C(Nc1ccc(Cl)c(COc2cccnc2)c1)c1ccccc1 [Compound 52, N-[4-Chloro-3-(pyridin-3-yloxymethyl)-phenyl]-benzamide]
< 200 | O=C(Nc1ccc(Cl)c(COc2cccnc2)c1)c1ccncc1 [Compound 53, N-[4-Chloro-3-(pyridin-3-yloxymethyl)-phenyl]-isonicotinamide]
< 1000 | Clc1cccc(Cl)c1COc1ccc(N2CCOCC2)nc1 [Compound 54]
< 200 | O=S(=O)(Nc1ccc(Cl)c(COc2cccnc2)c1)c1ccccc1 [Compound 55, N-(4-Chloro-3-(pyridin-3-yloxymethyl)-phenyl]-benzenesulfonamide]
< 1000 | O=S(=O)(c1ccccc1)N(c1ccc(Cl)c(COc2cccnc2)c1)S(=O)(=O)c1ccccc1 [Compound 56, N-[4-Chloro-3-(pyridin-3-yloxymethyl)-phenyl]-bisbenzenesulfonamide]
< 20 | Nc1ncccc1OCc1cc(NC(=O)c2ccccc2)ccc1Cl [Compound 57, N-[3-(2-Amino-pyridin-3-yloxymethyl)-4-chloro-phenyl]-benzamide]
< 1000 | c1cc(COc2cccnc2)cc(COc2cccnc2)c1 [Compound 58]
< 200 | O=C(Nc1ccc(F)c(COc2cccnc2)c1)c1ccccc1 [Compound 59, N-[4-Fluoro-3-(pyridin-3-yloxymethyl)-phenyl]-benzamide]
< 200 | O=C(Nc1ccc(F)c(COc2cccnc2)c1)c1cccc(F)c1 [Compound 60, 3-Fluoro-N-[4-fluoro-3-(pyridin-3-yloxymethyl)-phenyl]-benzamide]
< 20 | O=C(Nc1ccccc1)Nc1ccc(Cl)c(COc2cccnc2)c1 [Compound 61, 1-[4-Chloro-3-(pyridin-3-yloxymethyl)-phenyl]-3-phenyl-urea]
< 2 | O=C(Nc1ccc(F)c(COc2cccnc2)c1)c1cc(F)cc(N2CCOCC2)c1 [Compound 62, 3-Fluoro-N-[4-fluoro-3-(pyridin-3-yloxymethyl)-phenyl]-5-morpholin-4-yl-benzamide]
< 20 | NC(=O)Nc1ccc(Cl)c(COc2cccnc2)c1 [Compound 63, [4-Chloro-3-(pyridin-3-yloxymethyl)-phenyl]-urea]
< 2 | CC(C)(C)c1cc(NC(=O)Nc2ccc(Cl)c(COc3cccnc3)c2)n(-c2ccccc2)n1 [Compound 64, 1-(5-tert-Butyl-2-phenyl-2H-pyrazol-3-yl)-3-[4-chloro-3-(pyridin-3-yloxymethyl)-phenyl]-urea]
< 2 | CC(C)(C)c1cccc(C(=O)Nc2ccc(Cl)c(COc3cccnc3)c2)c1 [Compound 65, 3-tert-Butyl-N-[4-chloro-3-(pyridin-3-yloxymethyl)-phenyl]-benzamide]
< 200 | O=C(Nc1cccc(COc2cccnc2)c1)c1ccccc1 [Compound 66, N-[3-(Pyridin-3-yloxymethyl)-phenyl]-benzamide]
< 20 | O=C(Nc1cccc(COc2cccnc2)c1)c1cc(F)cc(N2CCOCC2)c1 [Compound 67, 3-Fluoro-5-morpholin-4-yl-N-[3-(pyridin-3-yloxymethyl)-phenyl]-benzamide]
< 1000 | O=C1c2ccccc2C(=O)N1c1ccc(Cl)c(COc2cccnc2)c1 [Compound 68, 2-[4-Chloro-3-(pyridin-3-yloxymethyl)-phenyl]-isoindole-1,3-dione]
< 20 | O=C(Nc1ccc(Cl)c(COc2cccnc2)c1)c1cccc(C(F)(F)F)c1 [Compound 69, N-[4-Chloro-3-(pyridin-3-yloxymethyl)-phenyl]-3-trifluoromethyl-benzamide]
